Source: patent publication US20230310428A1, “EGFR INHIBITOR AND PREPARATION METHOD AND USE THEREOF” (HONGYUN BIOTECH CO., LTD., priority 2020, published 2023)

How the values were obtained:
Assay in all cases: Growth inhibitory activity of compounds on BaF3 cell lines stably transfected with kinase (MTS, 48 h)
Type in all cases: cell-based
[1] = biological target: T1, various mutants of kinase EGFR (BaF3 cell lines stably transfected with kinase) (Homo sapiens, UniProt P00533, T790M/C797S, form not given); settings: BaF3 cells stably transfected with EGFR Δ19Del/T790M/C797S, read-out: IC50, growth inhibition, Δ19Del/T790M/C797S
T1 construct: other: BaF3 cells stably transfected with EGFR Δ19Del/T790M/C797S; MTS, 48; other: BaF3 cell line stably transfected with EGFR Δ19Del/T790M/C7
T1 sequence (P00533 with tags, fused parts or gaps DEL746-750/T790M/C797S, form open): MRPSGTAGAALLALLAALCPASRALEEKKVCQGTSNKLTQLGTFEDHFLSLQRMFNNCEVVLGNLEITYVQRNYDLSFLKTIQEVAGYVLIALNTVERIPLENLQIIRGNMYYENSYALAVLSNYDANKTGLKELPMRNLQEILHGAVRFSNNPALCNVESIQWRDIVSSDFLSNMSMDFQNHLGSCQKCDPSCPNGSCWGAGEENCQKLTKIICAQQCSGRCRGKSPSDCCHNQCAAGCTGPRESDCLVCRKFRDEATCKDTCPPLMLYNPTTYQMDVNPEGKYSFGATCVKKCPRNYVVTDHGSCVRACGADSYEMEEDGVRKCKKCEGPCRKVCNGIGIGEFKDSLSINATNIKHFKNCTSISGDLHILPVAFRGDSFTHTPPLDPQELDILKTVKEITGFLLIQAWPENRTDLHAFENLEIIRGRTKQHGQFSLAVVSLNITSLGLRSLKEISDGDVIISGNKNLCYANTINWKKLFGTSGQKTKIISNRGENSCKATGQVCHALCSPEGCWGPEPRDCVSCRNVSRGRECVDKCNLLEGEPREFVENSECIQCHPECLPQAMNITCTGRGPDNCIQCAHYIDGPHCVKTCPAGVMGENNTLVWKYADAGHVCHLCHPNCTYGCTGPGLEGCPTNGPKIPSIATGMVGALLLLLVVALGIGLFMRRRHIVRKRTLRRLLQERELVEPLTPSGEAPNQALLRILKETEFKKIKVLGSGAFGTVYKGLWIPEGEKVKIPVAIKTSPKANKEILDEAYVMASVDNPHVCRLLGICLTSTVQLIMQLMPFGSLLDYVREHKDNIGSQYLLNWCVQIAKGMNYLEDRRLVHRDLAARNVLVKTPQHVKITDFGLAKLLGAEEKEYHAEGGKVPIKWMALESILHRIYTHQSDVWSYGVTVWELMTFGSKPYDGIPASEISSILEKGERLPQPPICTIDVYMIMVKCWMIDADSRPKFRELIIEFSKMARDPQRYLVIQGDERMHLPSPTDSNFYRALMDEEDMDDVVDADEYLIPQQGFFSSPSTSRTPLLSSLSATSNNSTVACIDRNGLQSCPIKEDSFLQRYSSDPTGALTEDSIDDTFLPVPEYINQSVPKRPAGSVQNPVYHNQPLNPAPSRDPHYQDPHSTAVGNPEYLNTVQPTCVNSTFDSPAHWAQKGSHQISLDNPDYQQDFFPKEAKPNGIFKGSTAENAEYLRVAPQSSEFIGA
How it was run: (§1)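 BaF3 cells stably transfected with EGFR mutants were exposed for 48 h at 37°C to 8 compound concentrations (top 10 µM, 1/3 dilutions, 0.1% DMSO). Growth was read by MTS at 490 nm after 1-4 h, in duplicate; IC50 was derived from inhibition rates versus DMSO control.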

[2] = biological target: T2, various mutants of kinase EGFR (BaF3 cell lines stably transfected with kinase) (Homo sapiens, UniProt P00533, L858R/T790M); settings: BaF3 cells stably transfected with EGFR L858R/T790M, read-out: IC50, growth inhibition, L858R/T790M
T2 construct: expressed in transfected cells; host or cells: BaF3
How it was run: as §1

[3] = biological target: T3, various mutants of kinase EGFR (BaF3 cell lines stably transfected with kinase) (Homo sapiens, UniProt P00533, T790M, form not given); settings: BaF3 cells stably transfected with EGFR Δ19Del/T790M, read-out: IC50, growth inhibition, Δ19Del/T790M
T3 construct: other: BaF3 cells stably transfected with EGFR Δ19Del/T790M; MTS, 48 h; other: BaF3 cell line stably transfected with EGFR Δ19Del/T790M; MTS, 48
T3 sequence (P00533 with tags, fused parts or gaps DEL746-750/T790M, form open): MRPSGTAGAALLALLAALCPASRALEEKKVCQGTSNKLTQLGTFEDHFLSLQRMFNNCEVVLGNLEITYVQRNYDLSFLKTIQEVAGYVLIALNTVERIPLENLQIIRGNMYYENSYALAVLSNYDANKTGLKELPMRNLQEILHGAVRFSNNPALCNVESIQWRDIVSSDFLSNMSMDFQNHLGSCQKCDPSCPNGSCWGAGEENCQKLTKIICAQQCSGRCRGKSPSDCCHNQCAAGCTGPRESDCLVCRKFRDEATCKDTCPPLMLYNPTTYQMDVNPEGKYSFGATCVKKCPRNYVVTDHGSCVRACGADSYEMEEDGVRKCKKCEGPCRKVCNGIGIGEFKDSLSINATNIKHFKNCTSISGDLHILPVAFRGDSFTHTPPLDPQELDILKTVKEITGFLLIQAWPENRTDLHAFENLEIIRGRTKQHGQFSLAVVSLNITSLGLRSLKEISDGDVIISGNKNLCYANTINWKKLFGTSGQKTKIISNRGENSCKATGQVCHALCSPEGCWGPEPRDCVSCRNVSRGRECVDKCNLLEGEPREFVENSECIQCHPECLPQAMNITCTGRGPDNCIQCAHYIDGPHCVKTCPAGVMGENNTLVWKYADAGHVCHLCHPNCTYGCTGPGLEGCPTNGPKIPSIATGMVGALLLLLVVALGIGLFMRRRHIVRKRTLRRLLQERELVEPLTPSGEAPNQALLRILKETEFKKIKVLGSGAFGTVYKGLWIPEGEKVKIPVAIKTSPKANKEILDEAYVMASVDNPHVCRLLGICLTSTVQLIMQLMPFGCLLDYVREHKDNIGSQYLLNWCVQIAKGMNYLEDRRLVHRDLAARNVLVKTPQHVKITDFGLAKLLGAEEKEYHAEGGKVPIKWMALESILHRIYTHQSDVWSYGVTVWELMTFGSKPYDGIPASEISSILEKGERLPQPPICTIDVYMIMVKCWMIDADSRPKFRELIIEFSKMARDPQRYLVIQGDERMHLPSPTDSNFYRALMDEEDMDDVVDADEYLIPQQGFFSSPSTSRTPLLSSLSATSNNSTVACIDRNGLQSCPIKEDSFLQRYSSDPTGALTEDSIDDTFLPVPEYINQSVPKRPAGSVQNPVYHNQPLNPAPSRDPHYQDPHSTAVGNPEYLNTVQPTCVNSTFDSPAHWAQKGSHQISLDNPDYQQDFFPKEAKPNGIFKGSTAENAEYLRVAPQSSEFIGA
How it was run: as §1

[4] = biological target: T4, various mutants of kinase EGFR (BaF3 cell lines stably transfected with kinase) (Homo sapiens, UniProt P00533); settings: BaF3 cells stably transfected with EGFR Δ19Del, read-out: IC50, growth inhibition, Δ19Del
T4 construct: other: BaF3 cells stably transfected with EGFR Δ19Del; MTS, 48 h; other: BaF3 cell line stably transfected with EGFR Δ19Del
How it was run: as §1

[5] = biological target: T5, various mutants of kinase EGFR (BaF3 cell lines stably transfected with kinase) (Homo sapiens, UniProt P00533, L858R); settings: BaF3 cells stably transfected with EGFR L858R, read-out: IC50, growth inhibition, L858R
T5 construct: expressed in transfected cells; host or cells: BaF3
T5 sequence (P00533 25-1210 L858R): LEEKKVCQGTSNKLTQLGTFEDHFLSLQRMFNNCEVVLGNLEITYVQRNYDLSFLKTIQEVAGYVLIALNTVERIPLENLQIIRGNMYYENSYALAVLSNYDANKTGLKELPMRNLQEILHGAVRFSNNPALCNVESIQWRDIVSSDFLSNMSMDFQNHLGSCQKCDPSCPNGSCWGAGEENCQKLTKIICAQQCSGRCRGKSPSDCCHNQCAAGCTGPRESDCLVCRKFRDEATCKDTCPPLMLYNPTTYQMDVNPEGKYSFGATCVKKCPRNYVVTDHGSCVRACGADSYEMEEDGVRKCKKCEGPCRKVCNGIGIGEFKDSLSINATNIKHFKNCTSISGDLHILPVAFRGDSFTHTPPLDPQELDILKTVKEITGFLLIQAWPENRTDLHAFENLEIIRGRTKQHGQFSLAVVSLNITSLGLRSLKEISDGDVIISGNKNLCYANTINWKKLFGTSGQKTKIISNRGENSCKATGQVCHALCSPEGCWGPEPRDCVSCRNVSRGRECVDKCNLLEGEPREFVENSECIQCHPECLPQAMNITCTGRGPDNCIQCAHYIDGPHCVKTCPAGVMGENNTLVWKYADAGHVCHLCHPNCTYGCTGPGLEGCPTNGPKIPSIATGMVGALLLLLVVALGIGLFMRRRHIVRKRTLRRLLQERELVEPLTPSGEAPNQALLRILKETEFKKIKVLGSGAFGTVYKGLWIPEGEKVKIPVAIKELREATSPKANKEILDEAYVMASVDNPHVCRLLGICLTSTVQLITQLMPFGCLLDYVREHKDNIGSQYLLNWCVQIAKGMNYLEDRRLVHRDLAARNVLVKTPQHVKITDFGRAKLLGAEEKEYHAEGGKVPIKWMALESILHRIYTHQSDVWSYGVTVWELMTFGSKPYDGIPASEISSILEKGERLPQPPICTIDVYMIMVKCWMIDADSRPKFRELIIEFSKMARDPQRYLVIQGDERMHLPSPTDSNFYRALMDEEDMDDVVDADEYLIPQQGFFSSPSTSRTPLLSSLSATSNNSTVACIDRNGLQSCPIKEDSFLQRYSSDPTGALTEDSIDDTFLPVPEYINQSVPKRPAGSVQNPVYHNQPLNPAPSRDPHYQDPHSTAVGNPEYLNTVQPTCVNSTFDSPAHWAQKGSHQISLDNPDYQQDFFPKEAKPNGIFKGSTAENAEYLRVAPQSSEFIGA
How it was run: as §1

[6] = biological target: T6, various mutants of kinase EGFR (BaF3 cell lines stably transfected with kinase) (Homo sapiens, UniProt P00533, C797S/L858R/T790M); settings: BaF3 cells stably transfected with EGFR L858R/T790M/C797S, read-out: IC50, growth inhibition, L858R/T790M/C797S
T6 construct: expressed in transfected cells; host or cells: BaF3
T6 sequence (P00533 25-1210 T790M/C797S/L858R): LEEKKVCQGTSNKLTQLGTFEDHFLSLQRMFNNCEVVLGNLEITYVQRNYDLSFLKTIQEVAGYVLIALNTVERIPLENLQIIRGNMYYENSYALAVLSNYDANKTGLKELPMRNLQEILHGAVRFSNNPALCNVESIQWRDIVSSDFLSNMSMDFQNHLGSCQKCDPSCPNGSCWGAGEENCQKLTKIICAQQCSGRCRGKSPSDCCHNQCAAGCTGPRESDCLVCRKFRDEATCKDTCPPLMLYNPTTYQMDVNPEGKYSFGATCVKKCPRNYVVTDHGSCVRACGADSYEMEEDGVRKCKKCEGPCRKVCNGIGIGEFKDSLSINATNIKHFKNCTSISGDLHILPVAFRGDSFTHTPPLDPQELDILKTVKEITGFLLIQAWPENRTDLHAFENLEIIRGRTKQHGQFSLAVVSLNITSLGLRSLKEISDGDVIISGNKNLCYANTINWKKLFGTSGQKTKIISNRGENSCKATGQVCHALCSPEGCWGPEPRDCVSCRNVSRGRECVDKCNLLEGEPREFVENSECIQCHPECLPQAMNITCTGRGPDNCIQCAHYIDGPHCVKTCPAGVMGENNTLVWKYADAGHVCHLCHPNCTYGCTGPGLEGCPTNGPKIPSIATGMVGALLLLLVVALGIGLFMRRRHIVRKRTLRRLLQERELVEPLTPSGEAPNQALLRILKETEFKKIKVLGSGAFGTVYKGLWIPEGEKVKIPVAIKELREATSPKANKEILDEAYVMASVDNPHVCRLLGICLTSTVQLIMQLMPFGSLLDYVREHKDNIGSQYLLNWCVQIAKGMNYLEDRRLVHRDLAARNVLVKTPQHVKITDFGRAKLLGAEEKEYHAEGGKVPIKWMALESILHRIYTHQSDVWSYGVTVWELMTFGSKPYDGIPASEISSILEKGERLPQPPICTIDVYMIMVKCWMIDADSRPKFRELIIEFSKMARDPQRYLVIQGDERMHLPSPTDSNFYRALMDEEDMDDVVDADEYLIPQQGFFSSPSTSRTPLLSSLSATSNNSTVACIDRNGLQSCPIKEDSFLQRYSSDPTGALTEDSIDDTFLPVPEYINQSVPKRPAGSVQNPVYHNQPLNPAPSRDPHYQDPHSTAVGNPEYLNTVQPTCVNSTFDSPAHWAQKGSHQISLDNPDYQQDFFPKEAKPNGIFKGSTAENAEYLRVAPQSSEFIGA
How it was run: as §1

Compound | IC50 [1] [nM] | IC50 [2] [nM] | IC50 [3] [nM] | IC50 [4] [nM] | IC50 [5] [nM] | IC50 [6] [nM]
COc1nc(N2CCC(N3CCN(C)CC3)CC2)c(C)cc1Nc1ncc(Cl)c(Nc2ccc3nccnc3c2N(C2CC2)S(C)(=O)=O)n1 [Compound I-240] | 500 to 2500 | 500 to 2500 | 500 to 2500 | 500 to 2500 | 500 to 2500 | 500 to 2500
CCc1cc(Nc2ncc(Cl)c(Nc3ccc4nccnc4c3N(C3CC3)S(C)(=O)=O)n2)c(OC)nc1N1CCC(N2CCN(C)CC2)CC1 [Compound I-241] | ≤ 50 | ≤ 50 | ≤ 50 | ≤ 50 | ≤ 50 | 50 to 500
COc1cc(N2CCC(N3CCN(C)CC3)CC2)c(CC2CC2)cc1Nc1ncc(Cl)c(Nc2ccc3nccnc3c2N(C2CC2)S(C)(=O)=O)n1 [Compound I-242] | ≤ 50 | 50 to 500 | 50 to 500 | 50 to 500 | 50 to 500 | ≤ 50
COc1cc(N2CCC(N(C)C)CC2)c(C)cc1Nc1ncc(Cl)c(Nc2ccc3nccnc3c2N(C2CC2)S(C)(=O)=O)n1 [Compound I-243] | 50 to 500 | ≤ 50 | ≤ 50 | ≤ 50 | ≤ 50 | 50 to 500
COc1cc(N2CCN(C)CC2)c(C)cc1Nc1ncc(Cl)c(Nc2ccc3nccnc3c2N(C2CC2)S(C)(=O)=O)n1 [Compound I-244] | ≤ 50 | ≤ 50 | 50 to 500 | ≤ 50 | ≤ 50 | ≤ 50
CCc1cc(Nc2ncc(Cl)c(Nc3ccc4nccnc4c3N(C3CC3)S(C)(=O)=O)n2)c(OC)cc1N1CCN(C)CC1 [Compound I-245] | ≤ 50 | ≤ 50 | ≤ 50 | ≤ 50 | ≤ 50 | ≤ 50
COc1cc(N2CCC(N(C)C)C2)c(C)cc1Nc1ncc(Cl)c(Nc2ccc3nccnc3c2N(C2CC2)S(C)(=O)=O)n1 (stereo not drawn) [Compound I-246] | ≤ 50 | ≤ 50 | ≤ 50 | ≤ 50 | ≤ 50 | ≤ 50
COc1cc(N2CCC(N3CCN(C)CC3)CC2)ccc1Nc1ncc(F)c(Nc2ccc3nccnc3c2N(C)S(=O)(=O)C2CC2)n1 [Compound I-247] | 50 to 500 | 500 to 2500 | 500 to 2500 | 50 to 500 | 50 to 500 | 500 to 2500
COc1cc(N2CCC(N3CCN(C)CC3)CC2)c(C)cc1Nc1ncc(F)c(Nc2ccc3nccnc3c2N(C)S(=O)(=O)C2CC2)n1 [Compound I-248] | ≤ 50 | ≤ 50 | 50 to 500 | ≤ 50 | ≤ 50 | 50 to 500
CCc1cc(Nc2ncc(F)c(Nc3ccc4nccnc4c3N(C)S(=O)(=O)C3CC3)n2)c(OC)cc1N1CCC(N2CCN(C)CC2)CC1 [Compound I-249] | ≤ 50 | ≤ 50 | 50 to 500 | ≤ 50 | ≤ 50 | 50 to 500
CCc1cc(Nc2ncc(F)c(Nc3ccc4nccnc4c3N(C)S(=O)(=O)C3CC3)n2)c(OC(F)(F)F)cc1N1CCC(N2CCN(C)CC2)CC1 [Compound I-250] | 50 to 500 | 50 to 500 | 500 to 2500 | 50 to 500 | 50 to 500 | 500 to 2500
COc1cc(N2CCC(N3CCN(C)CC3)CC2)c(CC2CC2)cc1Nc1ncc(F)c(Nc2ccc3nccnc3c2N(C)S(=O)(=O)C2CC2)n1 [Compound I-251] | 50 to 500 | 50 to 500 | 500 to 2500 | 50 to 500 | 50 to 500 | 500 to 2500
CCc1cc(Nc2ncc(F)c(Nc3ccc4nccnc4c3N(C)S(=O)(=O)C3CC3)n2)c(OC)cc1N1CCC(N(C)C)CC1 [Compound I-252] | ≤ 50 | ≤ 50 | 50 to 500 | ≤ 50 | ≤ 50 | 50 to 500
CCc1cc(Nc2ncc(Cl)c(Nc3ccc4nccnc4c3N(C)S(=O)(=O)C(C)C)n2)c(OC)nc1N1CCC(N2CCN(C)CC2)CC1 [Compound I-253] | ≤ 50 | 50 to 500 | ≤ 50 | 50 to 500 | 50 to 500 | 50 to 500
COc1cc(N2CCC(N3CCN(C)CC3)CC2)c(CC2CC2)cc1Nc1ncc(Cl)c(Nc2ccc3nccnc3c2N(C)S(=O)(=O)C(C)C)n1 [Compound I-254] | 50 to 500 | 50 to 500 | ≤ 50 | 50 to 500 | 50 to 500 | 50 to 500
CCc1cc(Nc2ncc(Cl)c(Nc3ccc4nccnc4c3N(C)S(=O)(=O)C(C)C)n2)c(OC)cc1N1CCN(C)CC1 [Compound I-255] | ≤ 50 | 50 to 500 | ≤ 50 | 50 to 500 | 50 to 500 | 50 to 500
COc1cc(N2CCC(N3CCN(C)CC3)CC2)ccc1Nc1ncc(Br)c(Nc2ccc3nccnc3c2N(C)S(=O)(=O)C(F)(F)F)n1 [Compound I-256] | 50 to 500 | 50 to 500 | 500 to 2500 | 500 to 2500 | 500 to 2500 | 50 to 500
CCc1cc(Nc2ncc(Br)c(Nc3ccc4nccnc4c3N(C)S(=O)(=O)C(F)(F)F)n2)c(OC)nc1N1CCC(N2CCN(C)CC2)CC1 [Compound I-257] | ≤ 50 | 50 to 500 | 50 to 500 | 500 to 2500 | 500 to 2500 | 50 to 500
C=Cc1cc(Nc2ncc(Br)c(Nc3ccc4nccnc4c3N(C)S(=O)(=O)C(F)(F)F)n2)c(OC(F)(F)F)cc1N1CCC(N2CCN(C)CC2)CC1 [Compound I-258] | ≤ 50 | 50 to 500 | 50 to 500 | 500 to 2500 | 500 to 2500 | 50 to 500
COc1cc(N2CCC(N3CCN(C)CC3)CC2)c(CC2CC2)cc1Nc1ncc(Br)c(Nc2ccc3nccnc3c2N(C)S(=O)(=O)C(F)(F)F)n1 [Compound I-259] | 50 to 500 | 500 to 2500 | 500 to 2500 | 500 to 2500 | 500 to 2500 | 50 to 500
CCc1cc(Nc2ncc(Br)c(Nc3ccc4nccnc4c3N(C)S(=O)(=O)C(F)(F)F)n2)c(OC)cc1N1CCN(C)CC1 [Compound I-260] | ≤ 50 | 50 to 500 | 50 to 500 | 500 to 2500 | 500 to 2500 | 50 to 500
COc1cc(N2CCC(N3CCN(C)CC3)CC2)ccc1Nc1ncc(Cl)c(Nc2ccc3nccnc3c2N(C)S(=O)(=O)C(F)(F)F)n1 [Compound I-261] | 50 to 500 | 50 to 500 | 50 to 500 | 500 to 2500 | 500 to 2500 | 50 to 500
CCc1cc(Nc2ncc(Cl)c(Nc3ccc4nccnc4c3N(C)S(=O)(=O)C(F)(F)F)n2)c(OC)nc1N1CCC(N2CCN(C)CC2)CC1 [Compound I-262] | 50 to 500 | 500 to 2500 | 50 to 500 | 500 to 2500 | 500 to 2500 | 50 to 500
C=Cc1cc(Nc2ncc(Cl)c(Nc3ccc4nccnc4c3N(C)S(=O)(=O)C(F)(F)F)n2)c(OC(F)(F)F)cc1N1CCC(N2CCN(C)CC2)CC1 [Compound I-263] | 50 to 500 | 500 to 2500 | 50 to 500 | 500 to 2500 | 500 to 2500 | 50 to 500
COc1cc(N2CCC(N3CCN(C)CC3)CC2)c(CC2CC2)cc1Nc1ncc(Cl)c(Nc2ccc3nccnc3c2N(C)S(=O)(=O)C(F)(F)F)n1 [Compound I-264] | 50 to 500 | 500 to 2500 | 500 to 2500 | 500 to 2500 | 500 to 2500 | 50 to 500
COc1cc(N2CCC(N(C)C)CC2)c(C)cc1Nc1ncc(Cl)c(Nc2ccc3nccnc3c2N(C)S(=O)(=O)C(F)(F)F)n1 [Compound I-265] | 50 to 500 | 500 to 2500 | 500 to 2500 | 500 to 2500 | 500 to 2500 | 50 to 500
COc1cc(N2CCN(C)CC2)c(C)cc1Nc1ncc(Cl)c(Nc2ccc3nccnc3c2N(C)S(=O)(=O)C(F)(F)F)n1 [Compound I-266] | 500 to 2500 | 500 to 2500 | 500 to 2500 | 500 to 2500 | 500 to 2500 | 50 to 500
